The results in this text go back to paper PMC3813140, “Lipophilicity Examination of Some ACE inhibitors andHydrochlorothiazide on Cellulose in RP Thin-Layer Chromatography” (Iranian Journal of Pharmaceutical Research : IJPR, 2012).

Structures are written as SMILES.

A short description of this data set: RP-TLC on cellulose layers, lipophilicity evaluation with water-organic modifier binary solvent systems. The note with it: for hRF / - m (slope, specific hydrophobic surface area) / C0 (hydrophobicity parameter, C0 = - RM0/m) / RM0 (intercept, hydrophobicity parameter): cellulose; for - m (slope, specific hydrophobic surface area) / C0 (hydrophobicity parameter, C0 = - RM0/m) / RM0 (intercept, hydrophobicity parameter): organic modifier 10-30%; for relative lipophilicity among the investigated substances: RP-TLC on cellulose, all mobile phases. Type of data set: physicochemical. The procedure: The three, water-organic modifier, binary solvent systems were used with different volume fractions. All components of mobile phases were of analytical grade of purity.
The TLC experiments were performed on 10 cm × 10 cm cellulose (Art. 105552, Merck, Germany) layers.
After the development, the detection was performed by exposing the plates to iodine vapour. All investigations were performed at room temperature (22 ± 2 °C).
The RF -values were calculated according to the relationship:
RF = Distance of spot from origin / Distance of mobile phase front from origin
Here, RM-values were calculated for each solute in each mobile phase according to the Bate-Smith and Westall equation ([29]):
RM=log (1/RF-1) (Equation 1)
In an aim to establish the reversed-phase TLC on cellulose, the mobile phase had to be more polar than the cellulose.
The retention behavior of biological active substances investigated in RP-TLC can be presented as the relationship between the RM-values and the content of organic modifier in mobile phase through the linear Equation ([16]):
RM = R^0M + mC (Equation 2)
The value of the intercept, R^0M, represents the lipophilicity of the examined substance and the value of the slope, m, corresponds to the specific hydrophobic surface area of this substance, while C represents the volume fraction of the organic modifier in mobile phase.
By the analogy through the hydrophobicity parameter of φ0 ([6], [7]), previously defined for the HPLC method as the concentration of the organic modifier in the mobile phase for which the distribution of the analyzed substance between the mobile and stationary phase was equal (1:1) another hydrophobicity parameter, C0, can be calculated. The hydrophobicity parameter, C0, represents the volume fraction of the organic modifier in mobile phase where RM = 0 ([11]-[12]) and it can be calculated as C0 = - R^0M / m.

[1] abbreviates: water-acetone, 10 vol% organic modifier.
Where [2] appears, read: water-acetone, 15 vol% organic modifier.
Where [3] appears, read: water-acetone, 20 vol% organic modifier.
[4] abbreviates: water-acetone, 25 vol% organic modifier.
The mark [5] stands for this setting: water-acetone, 30 vol% organic modifier.
Setting [6] is: water-ethanol, 10 vol% organic modifier.
The mark [7] stands for this setting: water-ethanol, 15 vol% organic modifier.
Where [8] appears, read: water-ethanol, 20 vol% organic modifier.
Setting [9] is: water-ethanol, 25 vol% organic modifier.
Setting [10] is: water-ethanol, 30 vol% organic modifier.
The mark [11] stands for this setting: water-methanol, 10 vol% organic modifier.
The mark [12] stands for this setting: water-methanol, 15 vol% organic modifier.
Setting [13] is: water-methanol, 20 vol% organic modifier.
The mark [14] stands for this setting: water-methanol, 25 vol% organic modifier.
The mark [15] stands for this setting: water-methanol, 30 vol% organic modifier.

As for `CCOC(=O)C(CCc1ccccc1)N[C@@H](C)C(=O)N1CCC[C@H]1C(=O)O` (stereo partly drawn) [Substance 1, (S)-1-[N-[1-(ethoxycarbonyl)-3-phenylpropyl]-L-alanyl]-L-proline], the hRF runs as follows: under setting [1], 78; under setting [2], 84; under setting [3], 86; under setting [4], 89; under setting [5], 93; under setting [6], 81. Further, the hRF reads like this: under setting [7], 85; under setting [8], 90; under setting [9], 92; under setting [10], 93; under setting [11], 78; under setting [12], 80. For the same compound, the hRF runs as follows: under setting [13], 83; under setting [14], 86; under setting [15], 88. The “- m (slope, specific hydrophobic surface area)” value runs as follows: (water-acetone) 2.671 ± 0.002; (water-ethanol) 2.589 ± 0.002; (water-methanol) 1.635 ± 0.001.

As to `NS(=O)(=O)c1cc2c(cc1Cl)NCNS2(=O)=O` [HCTZ, 6-chloro-3,4-dihydro-2H-1,2,4-benzothiadiazine-7-sulfonamide,1,1-dioxide], the hRF under setting [1] is on record as 83; the hRF under setting [2] stood at 85; the hRF under setting [3] was 88; the hRF under setting [4] is reported as 92; the hRF under setting [5] is 95; the hRF under setting [6] is on record as 85. Further, the hRF is on record as 87 under setting [7]; 90 under setting [8]; 93 under setting [9]; 95 under setting [10]; 80 under setting [11]; 83 under setting [12]. Besides, the hRF runs as follows: under setting [13], 85; under setting [14], 90; under setting [15], 92. The “- m (slope, specific hydrophobic surface area)” value is, setting by setting: (water-acetone) 2.975 ± 0.004; (water-ethanol) 2.697 ± 0.002; (water-methanol) 2.366 ± 0.023.

For `NCCCC[C@H](NC(CCc1ccccc1)C(=O)O)C(=O)N1CCC[C@H]1C(=O)O.O.O` (stereo partly drawn) [Substance 3, (S)-1-[N^2-(1-carboxy-3-phenylpropyl)-L-lysyl]-L-proline dihydrate], the “relative lipophilicity among the investigated substances” value was “most hydrophilic”. The compound further returned a hRF under setting [1] of 86. The compound further displayed a hRF under setting [2] of 90. Moreover, the hRF under setting [3] was found to be 92. This compound came in with a hRF under setting [4] of 94. The compound further returned a hRF under setting [5] of 96. For the same compound, the “- m (slope, specific hydrophobic surface area)” value (water-acetone) is listed as 2.849 ± 0.001. Besides, the hRF under setting [6] is listed as 91. The hRF under setting [7] is on record as 93. Under setting [8], this compound had a hRF of 95. The compound further gave a hRF under setting [9] of 96. Under setting [10], this compound came in with a hRF of 97. For the same compound, where the note is “water-ethanol”, the “- m (slope, specific hydrophobic surface area)” value is 2.533 ± 0.001. Further, the hRF under setting [11] is listed as 85. In addition, under setting [12], the hRF is 88. The hRF under setting [13] amounted to 91. Under setting [14], this compound showed a hRF of 92. Further, the hRF under setting [15] is 93. Further, the “- m (slope, specific hydrophobic surface area)” value (water-methanol) turned out to be 1.871 ± 0.002.

Turning to `CCOC(=O)[C@H](CCc1ccccc1)N[C@H]1CCCN2CCC[C@@H](C(=O)O)N2C1=O` [Substance 4, [1S-[1α,9α (R*)]]-9-[[1-(ethoxycarbonyl)-3-phenylpropyl]amino] octahydro-10-oxo-6H-pyridazino [1,2-a] [1,2] diazepine-1-carboxylic acid monohydrate], the hRF is on record as 66 under setting [1]; 70 under setting [2]; 73 under setting [3]; 77 under setting [4]; 80 under setting [5]; 73 under setting [6]. In addition, the hRF by setting is: under setting [7], 76; under setting [8], 79; under setting [9], 83; under setting [10], 88; under setting [11], 60; under setting [12], 68. The hRF runs as follows: under setting [13], 75; under setting [14], 80; under setting [15], 85. The “- m (slope, specific hydrophobic surface area)” value reads like this: (water-acetone) 1.569 ± 0.001; (water-ethanol) 2.109 ± 0.002; (water-methanol) 2.858 ± 0.001. For the same compound, the “C0 (hydrophobicity parameter, C0 = - RM0/m)” value (water-methanol) is listed as 0.036. Further, the “RM0 (intercept, hydrophobicity parameter)” value (water-methanol) worked out at 0.104 ± 0.010.

As for `CCOC(=O)[C@H](CCc1ccccc1)N[C@@H](C)C(=O)N1Cc2ccccc2C[C@H]1C(=O)O` [Substance 2, [3S-[2[R* (R*)],3R*]]-2-[2-[[1-(ethoxycarbonyl)-3-phenylpropyl]amino]-1-oxopropyl]-1,2,3,4-tetrahydro-3-isoquinolinecarboxylic acid], the “relative lipophilicity among the investigated substances” value is given as “most lipophilic”. The compound also gave a hRF under setting [1] of 55. This compound also came in with a hRF under setting [2] of 60. Further, under setting [3], the hRF is 66. The hRF under setting [4] stood at 70. This compound also yielded a hRF under setting [5] of 73. Moreover, where the note is “water-acetone”, the “- m (slope, specific hydrophobic surface area)” value is given as 1.763 ± 0.001; the “C0 (hydrophobicity parameter, C0 = - RM0/m)” value turned out to be 0.047; the “RM0 (intercept, hydrophobicity parameter)” value is on record as 0.082 ± 0.020. Under setting [6], this compound returned a hRF of 65. Under setting [7], this compound had a hRF of 70. Under setting [8], the hRF is 74. Besides, the hRF under setting [9] turned out to be 79. Under setting [10], this compound came in with a hRF of 82. Under “water-ethanol”, the “- m (slope, specific hydrophobic surface area)” value was found to be 1.974 ± 0.001. Also, under setting [11], the hRF stood at 53. The same compound gave a hRF under setting [12] of 58. Under setting [13], the hRF was 65. Also, under setting [14], the hRF was 68. The compound further returned a hRF under setting [15] of 71. Also, under “water-methanol”, the “- m (slope, specific hydrophobic surface area)” value was determined as 1.721 ± 0.001; the “C0 (hydrophobicity parameter, C0 = - RM0/m)” value is listed as 0.063; the “RM0 (intercept, hydrophobicity parameter)” value is 0.109 ± 0.032.
